Assay results published in US5861424A, “Composition and method for treating cancer” (priority 1995, dated 1999).
Read-outs that look alike come from different tables or passages of the source.

Columns and labels:
[1] = test system: normal monkey kidney epithelial cell line CV-1; experiment: Colony formation assay, normal monkey kidney epithelial cells CV-1; details: for IC50: Primates, Epithelial cell;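 on all read-outs here: colonies visualized by crystal violet staining, incubation at 37 °C, IC50 relative to untreated wells given culture medium alone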
[2] = test system: human colon carcinoma cell line CX-1; experiment: Colony formation assay, human colon carcinoma CX-1; format: cell-based; details: for IC50: Homo sapiens, Colon carcinoma cell; for IC50 / CX-1 (IC50): 24 h treatment, colony count after 7 to 10 days; for Selectivity (ratio of IC50 for CV-1 and IC50 for CX-1): CV-1/CX-1
[3] = test system: human pancreatic carcinoma CRL 1420 cell line; experiment: Colony formation assay, human pancreatic carcinoma CRL 1420; format: cell-based; details: Table VII; for IC50: Homo sapiens, 24 h; for IC50 / CRL-1420 (IC50): 24 h treatment; for Selectivity (CV-1 IC50 / CRL-1420 IC50): CV-1/CRL-1420
Excerpt: (§1) The control received culture media only.
The Selectivity values, CRL 1420 values and CV-1 values for compounds of the General Formulas (1) to (6) used in the present invention are shown in Table VII below.

[4] = test system: human breast carcinoma MCF-7 cell line; experiment: Colony formation assay, human breast carcinoma MCF-7; format: cell-based; details: for IC50: Homo sapiens, MCF7, 24 h, read-out: MCF-7 (IC50); for Selectivity (CV-1 IC50 / MCF-7 IC50): CV-1/MCF-7
Excerpt: as §1
The Selectivity values, MCF-7 values and CV-1 values for compounds of the General Formulas (1) to (6) used in the present invention are shown in Table VI below.

[5] = test system: human melanoma LOX cell line; experiment: Colony formation assay, human melanoma LOX; format: cell-based; details: for IC50: Homo sapiens, LOX, 24 h, read-out: LOX (IC50); for Selectivity (CV-1 IC50 / LOX IC50): CV-1/LOX
Excerpt: as §1

[6] = test system: human bladder carcinoma EJ cell line; experiment: Colony formation assay, human bladder carcinoma EJ; format: cell-based; details: for IC50: Homo sapiens, EJ, 24 h, read-out: EJ (IC50); for Selectivity (CV-1 IC50 / EJ IC50): CV-1/EJ
Excerpt: as §1

[7] = read-out: CV-1 (IC50), Table IV
[8] = read-out: CV-1 (IC50), Table VI
[9] = read-out: CV-1 (IC50), Table VII
[10] = Table III, read-out: CX-1 (IC50)
[11] = read-out: CV-1 (IC50), Table III, 24 h treatment, colony count after 7 to 10 days
[12] = Table III, 24 h treatment, colony count after 7 to 10 days
[13] = read-out: CX-1 (IC50), Table III

SMILES | IC50 [1, 7] | IC50 ([1]; read-out: CV-1 (IC50), Table V) | IC50 [1, 9] | IC50 [2, 10] | Selectivity (ratio of IC50 for CV-1 and IC50 for CX-1) ([2]; Table III) | IC50 [3] | Selectivity (CV-1 IC50 / CRL-1420 IC50) [3] | Selectivity (CV-1 IC50 / MCF-7 IC50) ([4]; Table VI) | IC50 ([5]; Table V, 24 h treatment) | Selectivity (CV-1 IC50 / LOX IC50) ([5]; Table V) | IC50 ([6]; Table IV, 24 h treatment) | Selectivity (CV-1 IC50 / EJ IC50) ([6]; Table IV) | IC50 [1, 11] | also measured
CCN1CCSC1=CC=c1sc(=Cc2sc3ccc(OC)cc3[n+]2CC)n(CC)c1=O [Compound 125] | 8 µg/mL | 8 µg/mL | 8 µg/mL | 0.04 µg/mL | 200 | 0.05 µg/mL | 160 | 133 | 0.06 µg/mL | 133 | 0.06 µg/mL | 133 | – | IC50 [1, 8]: 8 µg/mL; IC50 ([4]; Table VI, 24 h treatment): 0.06 µg/mL
CCN1C(C)=CSC1=CC=c1sc(=Cc2sc3c4ccccc4ccc3[n+]2CC)n(CC)c1=O [Compound 97] | 2 µg/mL | 2 µg/mL | – | 0.01 µg/mL | 200 | – | – | – | – | 133 | 0.013 µg/mL | 154 | 2 µg/mL | IC50 [5]: 0.015 µg/mL
CCN1C(=CC=c2sc(=Cc3sc4ccccc4[n+]3CC)n(CC)c2=O)Sc2ccc3ccccc3c21 [Compound 178] | – | – | – | – | 200 | – | 154 | 435 | – | – | – | – | – | CV-1 (IC50) [1, 12]: 2 µg/mL; CV-1 (IC50) ([1]; Table VI): 2 µg/mL; CV-1 (IC50) ([1]; Table VII): 2 µg/mL; CX-1 (IC50) ([2]; Table III): 0.01 µg/mL; CRL-1420 (IC50) [3]: 0.013 µg/mL; MCF-7 (IC50) ([4]; Table VI, 24 h treatment): 0.0046 µg/mL
CCn1c(=Cc2sc3ccccc3[n+]2CC)sc(=CC=C2N(C)c3ccccc3C2(C)C)c1=O [Compound 206] | 6 µg/mL | 6 µg/mL | 6 µg/mL | 0.01 µg/mL | 600 | 0.03 µg/mL | 196 | 125 | 0.03 µg/mL | 196 | 0.013 µg/mL | 462 | 6 µg/mL | IC50 [1, 8]: 6 µg/mL; IC50 ([4]; Table VI, 24 h treatment): 0.048 µg/mL
CCn1c(=Cc2sc3ccccc3[n+]2CC)sc(=CC=C2SCCN2C)c1=O [Compound 141] | – | 20 µg/mL | 20 µg/mL | 0.05 µg/mL | 400 | 0.045 µg/mL | 444 | 109 | 0.064 µg/mL | 312 | – | – | 20 µg/mL | IC50 [1, 8]: 20 µg/mL; IC50 ([4]; Table VI, 24 h treatment): 0.184 µg/mL
CCN1C(=CC=c2sc(=Cc3sc4ccc5ccccc5c4[n+]3CC)n(CC)c2=O)N(CC)c2ccccc21 [Compound 234] | – | – | – | – | 333 | 0.03 µg/mL | 333 | 200 | 0.03 µg/mL | 333 | – | – | – | IC50 ([1]; read-out: CV-1 (IC50)): 10 µg/mL; IC50 [2, 13]: 0.03 µg/mL; IC50 ([4]; Table VI, 24 h treatment): 0.05 µg/mL
CCN1C(=CC=c2sc(=Cc3ccc4ccccc4[n+]3CC)n(CC)c2=O)Sc2ccc3ccccc3c21 [Compound 40] | – | – | 2 µg/mL | 0.02 µg/mL | 257 | 0.05 µg/mL | – | – | – | – | – | – | 5.14 µg/mL | –
CCN1C=CC=CC1=CC=c1sc(=Cc2sc3ccc4ccccc4c3[n+]2CC)n(CC)c1=O [Compound 278] | – | – | – | – | 333 | 0.04 µg/mL | 250 | 111 | 0.035 µg/mL | 286 | – | – | – | IC50 ([1]; read-out: CV-1 (IC50)): 10 µg/mL; CX-1 (IC50) ([2]; Table III): 0.03 µg/mL; IC50 [4]: 0.09 µg/mL
CCN1C(=CC=c2sc(=Cc3sc4c5ccccc5ccc4[n+]3CC)n(CC)c2=O)N(CC(F)(F)C(F)F)c2cc(C(F)(F)F)ccc21 [Compound 230] | 15 µg/mL | 15 µg/mL | 15 µg/mL | 0.05 µg/mL | 375 | 0.05 µg/mL | 300 | 167 | 0.06 µg/mL | 200 | 0.05 µg/mL | 300 | 15 µg/mL | IC50 [1, 8]: 15 µg/mL; IC50 [4]: 0.09 µg/mL
CCN1C(=CC=c2sc(=Cc3sc4c5ccccc5ccc4[n+]3C)n(CC)c2=O)Sc2ccc3ccccc3c21 [Compound 49] | 20 µg/mL | 20 µg/mL | 20 µg/mL | – | 667 | 0.075 µg/mL | 267 | 333 | 0.075 µg/mL | 267 | 0.045 µg/mL | 444 | – | IC50 [1, 8]: 20 µg/mL; CX-1 (IC50) ([2]; Table III): 0.03 µg/mL; IC50 ([4]; Table VI, 24 h treatment): 0.06 µg/mL
CCN1C(=CC=c2sc(=Cc3sc4c5ccccc5ccc4[n+]3CC)n(CC)c2=O)N(CC)c2cc(Cl)ccc21 [Compound 235] | – | – | – | 0.05 µg/mL | > 400 | – | – | – | – | – | – | 500 | > 20 µg/mL | IC50 ([1]; read-out: CV-1 (IC50)): 10 µg/mL; IC50 [6]: 0.02 µg/mL
CCn1c(=Cc2oc3c4ccccc4ccc3[n+]2CC)sc(=CC=C2N(C)c3ccccc3C2(C)C)c1=O [Compound 208] | – | 6 µg/mL | – | 0.01 µg/mL | 600 | – | – | – | 0.039 µg/mL | 154 | – | – | 6 µg/mL | –
CCN1C(=CC=c2sc(=Cc3cc[n+](CC)c4ccccc34)n(CC)c2=O)C=Cc2ccccc21 [Compound 392] | – | – | – | – | 286 | – | – | – | – | – | – | – | – | CV-1 (IC50) [1, 12]: 20 µg/mL; CX-1 (IC50) ([2]; Table III): 0.01 µg/mL
CCN1C(=CC=c2sc(=Cc3sc4ccccc4[n+]3CC)n(CC)c2=O)Sc2ccc3ccccc3c21 [Compound 37] | 5 µg/mL | 5 µg/mL | – | 0.02 µg/mL | 250 | – | 167 | 100 | 0.05 µg/mL | 100 | 0.03 µg/mL | 167 | – | CRL-1420 (IC50) [3]: 0.03 µg/mL; MCF-7 (IC50) ([4]; Table VI, 24 h treatment): 0.05 µg/mL
CCN1CCSC1=CC=c1sc(=Cc2sc3ccc(C)cc3[n+]2CC)n(CC)c1=O [Compound 124] | 5 µg/mL | 5 µg/mL | 5 µg/mL | – | 167 | 0.04 µg/mL | 125 | – | 0.04 µg/mL | 125 | 0.05 µg/mL | 100 | 5 µg/mL | IC50 [2, 13]: 0.03 µg/mL
CCn1c(=Cc2sc3ccc(Cl)cc3[n+]2CC)sc(=CC=C2N(C)c3ccccc3C2(C)C)c1=O [Compound 214] | 8 µg/mL | 8 µg/mL | 8 µg/mL | – | 267 | 0.04 µg/mL | 200 | – | 0.04 µg/mL | 200 | 0.04 µg/mL | 200 | – | IC50 [2, 13]: 0.03 µg/mL
CCN1CCSC1=CC=c1sc(=Cc2sc3ccc(Cl)cc3[n+]2CC)n(CC)c1=O [Compound 123] | 20 µg/mL | – | 20 µg/mL | – | 200 | 0.13 µg/mL | 154 | – | – | – | 0.13 µg/mL | 154 | 20 µg/mL | IC50 [2, 13]: 0.1 µg/mL
CCN1CCSC1=CC=c1sc(=Cc2sc3ccccc3[n+]2CCOC)n(CC)c1=O [Compound 145] | – | – | – | 0.05 µg/mL | 200 | 0.082 µg/mL | 122 | 100 | 0.064 µg/mL | 156 | 0.082 µg/mL | 122 | – | IC50 ([1]; read-out: CV-1 (IC50)): 10 µg/mL; IC50 ([4]; Table VI, 24 h treatment): 0.1 µg/mL
CCN1C(=CC=c2sc(=CC3=[N+](CC)CCS3)n(CC)c2=O)C=Cc2ccccc21 [Compound 400] | – | – | – | – | > 250 | – | – | – | – | – | – | – | > 20 µg/mL | –
CCn1c(=Cc2sc3cc(Cl)c(Cl)cc3[n+]2CC)sc(=CC=C2Sc3ccc4ccccc4c3N2C)c1=O [Compound 383] | – | – | – | – | 200 | – | – | – | – | – | – | – | 20 µg/mL | IC50 [2, 13]: 0.1 µg/mL
CCN1C(=CC=c2sc(=Cc3sc4ccc5ccccc5c4[n+]3CC)n(CC)c2=O)Sc2ccc3ccccc3c21 [Compound 30] | – | – | – | 0.025 µg/mL | – | – | – | – | – | – | – | – | 5 µg/mL | –
CCN1CCSC1=CC=c1sc(=Cc2sc3c4ccccc4ccc3[n+]2CC)n(CC)c1=O [Compound 151] | – | – | – | – | 250 | – | – | – | – | – | – | – | – | CV-1 (IC50) [1, 12]: 20 µg/mL; CX-1 (IC50) ([2]; Table III): 0.08 µg/mL
